Patent US9655965B2, “Radiosensitizer compounds for use in combination with radiation” (priority 2013, dated 2017)
Entries after “also recorded” stand apart in the source; their conditions may differ.

Legend:
SCID mice = assay: In vivo toxicity of Compound B in SCID mice
Procedure: The three groups (five 6-8 week SCID mice/group) in the experiment were: (1) control article (5% EtOH/medium); (2) Compound B 5 mg/kg in 5% EtOH/medium; and (3) Compound B 7 mg/kg in 5% EtOH/medium, as shown in Table 1. Compound B was injected IP every day for 10 days.
6.1.2 Mouse and Compound B Solution Preparation: • 6-8 week SCID mice were used in this study; Compound B as an exemplary RSC was dissolved in 5% EtOH: 95% (cell culture) medium (≈1:20).
6-8 week SCID Mice were individually weighed and injected intraperitoneally (IP) according to body weight for an injection concentration as outlined in the study group table above. […]
The overall drug toxicity in mice was observed by a survival assay and body weight measurements, and the acute drug toxicity was measured by blood collection and histology. The hepatotoxicity (ALT, ALP, AST), nephrotoxicity (blood BUN, creatinine), and electrolytes (Na, K, etc) were analyzed by HPLC-mass spectroscopy. […]
All animals were observed post administration, and at least once a day, more if deemed necessary, during the pre-treatment and treatment periods for mortality and morbidity. In particular, animals were monitored for signs of ill health such as body weight loss, change in appetite, behavior changes such as altered gait, lethargy and gross manifestations of stress.

[1] = system: human normal cells (GM05757); assay: In vitro toxicity in human normal cells, 72-hr treatment, MTT assay; assay type: cell-based; conditions: GM05757, 72-hr treatment, without ionizing radiation, 0-50 μM cisplatin, 0-200 μM compounds
Description: (§1) Dibromo-diamino-benzene (Dibromo-phenylenediamine, Compound B) was obtained from TCI-America. Diiodo-diaminobenzene (Compound C) were synthesized, purified and crystallized in our laboratory, and the structures and purity were examined by NMR and mass spectrometry. MEM and fetal bovine serum (FBS), penicillin G and streptomycin were obtained from Hyclone Laboratories (UT, USA). Stock solution of cisplatin was freshly prepared in ultrapure water or saline, and stock solutions of Compounds A, B, C, D were prepared in pure ethanol, where the final concentration of ethanol was ≦1% when treated to cells.
A human skin diploid fibroblast (GM05757 cell line) was obtained from the Coriell Cell Repository directly. Fetal bovine serum (FBS) was obtained from Hyclone Laboratories (UT, USA). The GM05757 normal cells were cultivated with MEM (Hyclone) supplemented with 10% FBS, 100 units/mL penicillin G and 100 μg/mL streptomycin (Hyclone). The cells were maintained at 37° C. in a humidified atmosphere containing 5% CO2.
(§2) The radiosensitizing effects of RSCs on cell viability were determined by the 3-[4,5-dimethylthiazol-2-yl]-2,5-diphenyl tetrazoliumbromide (MTT) assay. Cells were cultured in 96-well plates (5×10^3 cells/well) for 24 h. The culture medium was replaced by fresh culture medium and incubated for 72 h with varying drug concentrations. The MTT assay of cell viability was then conducted. Briefly, 100 μl new medium without phenol red containing 1.2 mM MTT (sigma) (i.e., adding 10 μl 12 mM MTT stock solution in PBS) were added to each well and incubated for 4 h. The medium was then removed, and the formazan crystals solubilized by 100 μL/well DMSO (or alternatively by 100 μl/well SDS and incubated for another 4 h). The surviving fraction was determined by measuring the absorbance at 540 nm (570 nm for SDS solubilization) using a Multiskan Spectrum UV/Vis microplate reader (Thermo Scientific), which is directly proportional to the number of viable cells.

[2] = system: various human cancer cells; assay: In vitro radiosensitizing effects in various human cancer cells (FIG. 14-21); assay type: cell-based; conditions: 12 hr treatment, then various doses of 225 keV X-ray
Description: as §1, with “TCI—America.” for “TCI-America.”
(§3) A human skin diploid fibroblast (GM05757 cell line) was obtained from the Coriell Cell Repository directly, while the human cervical cancer cell line (HeLa, ATCC#: CCL-2; or ME-180), human ovarian cancer cell line (NIH:OVCAR-3, ATCC#: HTB-161) and human lung cancer cell line (A549, ATCC#: CCL-185™), together with RPMI 1640, F-12K, McCoy's 5 A and L-15 culture media, were obtained from the American Type Culture Collection (ATCC) directly. Fetal bovine serum (FBS) was obtained from Hyclone Laboratories (UT, USA). The GM05757 normal cells and HeLa cells were cultivated with MEM (Hyclone) supplemented with 10% FBS, 100 units/mL penicillin G and 100 μg/mL streptomycin (Hyclone). The complete growth media for ME-180, NIH:OVCAR-3, A549 and MDA-MB-231 cells were the ATCC-formulated McCoy's 5 A Medium supplemented with 10% FBS, RPMI 1640 medium with 20%, F-12K medium with 10% FBS, and L-15 Medium (Leibovitz) with 10% FBS, respectively. The cells were maintained at 37° C. in a humidified atmosphere containing 5% CO2.
as §2, with “12” for “72”, “concentrations. The cells were then irradiated by 225 kV X-ray (PRECISION X-RAD IR 225) at a dose rate of 2 Gy/min with various X-ray doses. After irradiation, the cells were incubated for 6 days.” for “concentrations.”

[3] = system: human cervical cancer (ME-180) cells; assay: In vitro radiosensitizing effect, MTT assay 6 days after X-ray, ME-180; assay type: cell-based
Description: as §1, with “TCI—America.” for “TCI-America.”
as §3
as §2, with “12” for “72”, “concentrations. The cells were then irradiated by 225 kV X-ray (PRECISION X-RAD IR 225) at a dose rate of 2 Gy/min with various X-ray doses. After irradiation, the cells were incubated for 6 days.” for “concentrations.”

Structure (SMILES): Nc1cc(Br)c(Br)cc1N [Compound B, 4,5-dibromo-1,2-phenylenediamine]
- overall toxicity in mice (survival, body weight) (SCID mice; IP 0, 5 and 7 mg/kg daily for 10 days): no overall drug toxicity; also recorded: no overall toxicity in mice
- survival rate of mice (SCID mice; SCID, mouse, in vivo, 10 days): 100%
- toxicity toward human normal cells [1]: essentially no toxicity; also recorded: little toxicity up to 200 μM
- killing of cancer cells in combination with radiation [2]: enhanced the killing of cancer cells in a radiation dose dependent manner and in synergy with radiation; also recorded: enhances the effectiveness of ionizing radiation to kill tumor cells
- enhancement of radiosensitivity of cancer cells to X-ray ([3]; ME-180, 12-hr treatment, 0-10 Gy 225 keV X-ray, MTT at 6 days): significant enhancement in the radiosensitivity
- killing of cancer cells ([3]; ME-180, 50 Gy x-ray with about 100 μM compound, about 20% survived without any RSC): early all cancer cells were killed
